Test results as given in US6376649B1, “Methods for the synthesis of α- hydroxy-β-amino acid and amide derivatives” (Corvas International, Inc., priority 1998, dated 2002).

Biological target: thrombin (Homo sapiens, UniProt P00734)
Experiment: standard in vitro assays of thrombin inhibitory activity and selectivity
Type: biochemical
Conditions: standard in vitro assays designed to measure inhibitory activity and selectivity toward thrombin versus other proteases

- thrombin inhibitory activity: thrombin inhibitory activity
Substance: BnSO2-7Lac—G—R(.TFA)(CO))—Gly—OEt [16-5]
